Source: PMC6444592, “Citrullination of HP1γ chromodomain affects association with chromatin” (Epigenetics & Chromatin, 2019)

Tested on: mESCs
Assay: live-cell single-particle tracking, 13.5 ms, jump distance analysis
Type: cell-based, mouse
Details: for diffusion rate, effect of LIF withdrawal: −LIF 72 h versus +LIF
Description: Parental E14 mouse embryonic stem cell (mESC) line was profiled by transcriptome analysis, qPCR and potency assays and was routinely tested for mycoplasma contamination and tested negative. Cells were cultured in DMEM (Gibco) supplemented with 15% standard FCS (Gibco), 0.1 mM non-essential amino acids (Gibco), 1% penicillin/streptomycin, 2 mM L-glutamine (Gibco), 1 mM sodium pyruvate (Gibco), 0.1 mM β-mercaptoethanol (Life Technologies) and 10^6 units/l mLIF (ESGRO, Millipore). E14 cells were stored in incubators at 37 °C in 7.5% CO2 (100% humidity) and maintained in 0.1% gelatin coated 10-cm culture dishes with 1:6 passaging every 2 days. Media was changed on a daily basis. E14 ESCs expressing mouse mEos3.2–HaloTag-HP1 fusion proteins were generated by transfecting appropriate pSB7 plasmids into E14 cells using Lipofectamine 2000 transfection reagent (Invitrogen), followed by selection in 600 µg/ml geneticin (Life Technologies). After 2 weeks of geneticin selection, cells were sorted using a Sony SH800S cell sorter for the expression of mEos3.2. Differentiation of ESCs was induced by LIF withdrawal. ESCs cultured in complete ES cell media (+ LIF) were trypsinised and washed twice in 1x PBS to remove residual LIF, seeded into ES cell media without LIF and incubated for 24, 48 or 72 h.
An IX73 Olympus inverted microscope was used with circularly polarised laser beams aligned and focused at the back aperture of an Olympus 1.40 NA 100 × oil objective (Universal Plan Super Apochromat, 100 × , NA 1.40, UPLSAPO100XO/1.4). Continuous wavelength diode laser light sources used include a 561-nm (Cobolt, Jive 200, 200 mW) and a 405-nm laser (Stradus, Toptica, 405–100, 100 mW). Oblique angle illumination was achieved by aligning the laser off axis such that the emergent beam at the sample interface was near-collimated and incident at an angle slightly less than the critical angle θc ~ 67° for a glass/water interface. This generated a ~ 50 μm diameter excitation footprint. The power of the collimated beams at the back aperture of the microscope was 10 kW/cm^2 and 10–100 W/cm^2 for the 561-nm and 405-nm laser beams, respectively. The lasers were reflected by dichroic mirrors (Semrock, Di01-R405/488/561/635). The fluorescence emission was collected through the same objective and then further filtered using a combination of long-pass and band-pass filters (BLP01-561R and FF01-587/35 for 561 nm excitation). The emission signal was projected onto an EMCCD (Photometrics, Evolve 512 Delta) with an electron multiplication gain of 250 ADU/photon operating in a frame transfer mode.
mESCs expressing mEos3.2–HaloTag-tagged HP1γ were passaged 2 days before imaging onto 35-mm glass bottom dishes No 1.0 (MatTek Corporation P35G-1.0-14-C Case) in phenol red-free serum and LIF conditions, if not stated otherwise. Just before single-particle tracking (SPT) imaging experiments, cells were labelled with 0.5 nM HaloTag–JF549 ligand for at least 15 min, followed by two washes in PBS and a 30-min incubation at 37 °C in media, before imaging the cells in fresh phenol red-free serum and LIF conditions. Cells were under-labelled to prevent overlap of fluorophores during SPT. Using 561 nm excitation, fluorescence images were collected as movies of 10,000 frames at 13.5 ms or 1000 to 5000 frames at 500 ms exposure. For live-cell tracking, data were collected for three biological replicates on separate dishes and the average values compared.
Live-cell 13.5-ms single-molecule traces were analysed using software that detects single-molecule trajectories from SPT movies. Briefly, the code detected puncta positions in each image frame using a brightness-weighted centroid after applying a band-pass filter to remove low-frequency background and high-frequency noise from the image data. To track the HP1 single molecules, only fluorescent puncta smaller than 3 pixels and with a signal to noise greater than 8 were analysed. […]

HP1γWT: full-length mouse HP1γ wild type, as GST or mEos3.2–HaloTag fusion protein
Diffusion coefficient, Bound (+LIF, 13.5 ms, replicate i): 0.100 µm2s-1 | Diffusion coefficient, Diffusing (+LIF, 13.5 ms, replicate i): 0.780 µm2s-1 | Percentage, Bound (+LIF, 13.5 ms, replicate i): 36.7% | Percentage, Diffusing (+LIF, 13.5 ms, replicate i): 63.3% | Diffusion coefficient, Bound (+LIF, 13.5 ms, replicate ii): 0.100 µm2s-1 | Diffusion coefficient, Diffusing (+LIF, 13.5 ms, replicate ii): 0.812 µm2s-1 | Percentage, Bound (+LIF, 13.5 ms, replicate ii): 30% | Percentage, Diffusing (+LIF, 13.5 ms, replicate ii): 70% | Diffusion coefficient, Bound (+LIF, 13.5 ms, replicate iii): 0.100 µm2s-1 | Diffusion coefficient, Diffusing (+LIF, 13.5 ms, replicate iii): 0.784 µm2s-1 | Percentage, Bound (+LIF, 13.5 ms, replicate iii): 32.4% | Percentage, Diffusing (+LIF, 13.5 ms, replicate iii): 67.6% | Diffusion coefficient, Bound (+LIF, 13.5 ms, replicate iv): 0.097 µm2s-1 | Diffusion coefficient, Diffusing (+LIF, 13.5 ms, replicate iv): 1.019 µm2s-1 | Percentage, Bound (+LIF, 13.5 ms, replicate iv): 49% | Percentage, Diffusing (+LIF, 13.5 ms, replicate iv): 51% | Diffusion coefficient, Bound (+LIF, 13.5 ms, replicate v): 0.089 µm2s-1 | Diffusion coefficient, Diffusing (+LIF, 13.5 ms, replicate v): 0.972 µm2s-1 | Percentage, Bound (+LIF, 13.5 ms, replicate v): 38.8% | Percentage, Diffusing (+LIF, 13.5 ms, replicate v): 61.2% | Percentage of molecules, diffusing (+LIF, mESCs, 13.5 ms, mean ± SD (n = 5–9)): 63% | diffusion rate, effect of LIF withdrawal (13.5 ms): no significant effect | Diffusion coefficient, Bound (−LIF, 13.5 ms, replicate i): 0.082 µm2s-1 | Diffusion coefficient, Diffusing (−LIF, 13.5 ms, replicate i): 0.733 µm2s-1 | Percentage, Bound (−LIF, 13.5 ms, replicate i): 51.4% | Percentage, Diffusing (−LIF, 13.5 ms, replicate i): 48.6% | Diffusion coefficient, Bound (−LIF, 13.5 ms, replicate ii): 0.092 µm2s-1 | Diffusion coefficient, Diffusing (−LIF, 13.5 ms, replicate ii): 0.912 µm2s-1 | Percentage, Bound (−LIF, 13.5 ms, replicate ii): 51% | Percentage, Diffusing (−LIF, 13.5 ms, replicate ii): 49% | Diffusion coefficient, Bound (−LIF, 13.5 ms, replicate iii): 0.100 µm2s-1 | Diffusion coefficient, Diffusing (−LIF, 13.5 ms, replicate iii): 1.037 µm2s-1 | Percentage, Bound (−LIF, 13.5 ms, replicate iii): 31.3% | Percentage, Diffusing (−LIF, 13.5 ms, replicate iii): 68.7% | Diffusion coefficient, Bound (−LIF, 13.5 ms, replicate iv): 0.100 µm2s-1 | Diffusion coefficient, Diffusing (−LIF, 13.5 ms, replicate iv): 1.007 µm2s-1 | Percentage, Bound (−LIF, 13.5 ms, replicate iv): 30.9% | Percentage, Diffusing (−LIF, 13.5 ms, replicate iv): 69.1% | Diffusion coefficient, Bound (−LIF, 13.5 ms, replicate v): 0.100 µm2s-1 | Diffusion coefficient, Diffusing (−LIF, 13.5 ms, replicate v): 0.930 µm2s-1 | Percentage, Bound (−LIF, 13.5 ms, replicate v): 27.9% | Percentage, Diffusing (−LIF, 13.5 ms, replicate v): 72.1%

HP1γR38/9A: HP1γ with alanine substitutions at amino acids 38 and 39 to mimic citrullination
Diffusion coefficient, Bound (+LIF, 13.5 ms, replicate i): 0.090 µm2s-1 | Diffusion coefficient, Diffusing (+LIF, 13.5 ms, replicate i): 0.746 µm2s-1 | Percentage, Bound (+LIF, 13.5 ms, replicate i): 38.9% | Percentage, Diffusing (+LIF, 13.5 ms, replicate i): 61.1% | Diffusion coefficient, Bound (+LIF, 13.5 ms, replicate ii): 0.100 µm2s-1 | Diffusion coefficient, Diffusing (+LIF, 13.5 ms, replicate ii): 0.761 µm2s-1 | Percentage, Bound (+LIF, 13.5 ms, replicate ii): 29.6% | Percentage, Diffusing (+LIF, 13.5 ms, replicate ii): 70.4% | Diffusion coefficient, Bound (+LIF, 13.5 ms, replicate iii): 0.100 µm2s-1 | Diffusion coefficient, Diffusing (+LIF, 13.5 ms, replicate iii): 0.706 µm2s-1 | Percentage, Bound (+LIF, 13.5 ms, replicate iii): 34.1% | Percentage, Diffusing (+LIF, 13.5 ms, replicate iii): 65.9% | Diffusion coefficient, Bound (+LIF, 13.5 ms, replicate iv): 0.100 µm2s-1 | Diffusion coefficient, Diffusing (+LIF, 13.5 ms, replicate iv): 1.012 µm2s-1 | Percentage, Bound (+LIF, 13.5 ms, replicate iv): 21.5% | Percentage, Diffusing (+LIF, 13.5 ms, replicate iv): 78.5% | Diffusion coefficient, Bound (+LIF, 13.5 ms, replicate v): 0.100 µm2s-1 | Diffusion coefficient, Diffusing (+LIF, 13.5 ms, replicate v): 1.094 µm2s-1 | Percentage, Bound (+LIF, 13.5 ms, replicate v): 13.1% | Percentage, Diffusing (+LIF, 13.5 ms, replicate v): 86.9% | Diffusion coefficient, Bound (+LIF, 13.5 ms, replicate vi): 0.100 µm2s-1 | Diffusion coefficient, Diffusing (+LIF, 13.5 ms, replicate vi): 1.108 µm2s-1 | Percentage, Bound (+LIF, 13.5 ms, replicate vi): 37.1% | Percentage, Diffusing (+LIF, 13.5 ms, replicate vi): 62.9% | percentages of molecules in diffusing and bound fractions, significance across conditions (WT and R38/9A, +/− LIF, p values > 0.967): ns. | diffusion coefficients, significance across conditions (WT and R38/9A, +/− LIF, p values > 0.999): no significant differences across conditions | diffusion rate, effect of LIF withdrawal (13.5 ms): no significant effect | Diffusion coefficient, Bound (−LIF, 13.5 ms, replicate i): 0.075 µm2s-1 | Diffusion coefficient, Diffusing (−LIF, 13.5 ms, replicate i): 0.609 µm2s-1 | Percentage, Bound (−LIF, 13.5 ms, replicate i): 44.5% | Percentage, Diffusing (−LIF, 13.5 ms, replicate i): 55.5% | Diffusion coefficient, Bound (−LIF, 13.5 ms, replicate ii): 0.100 µm2s-1 | Diffusion coefficient, Diffusing (−LIF, 13.5 ms, replicate ii): 0.697 µm2s-1 | Percentage, Bound (−LIF, 13.5 ms, replicate ii): 37.2% | Percentage, Diffusing (−LIF, 13.5 ms, replicate ii): 62.8% | Diffusion coefficient, Bound (−LIF, 13.5 ms, replicate iii): 0.100 µm2s-1 | Diffusion coefficient, Diffusing (−LIF, 13.5 ms, replicate iii): 0.913 µm2s-1 | Percentage, Bound (−LIF, 13.5 ms, replicate iii): 32.9% | Percentage, Diffusing (−LIF, 13.5 ms, replicate iii): 67.1% | Diffusion coefficient, Bound (−LIF, 13.5 ms, replicate iv): 0.100 µm2s-1 | Diffusion coefficient, Diffusing (−LIF, 13.5 ms, replicate iv): 0.659 µm2s-1 | Percentage, Bound (−LIF, 13.5 ms, replicate iv): 34.6% | Percentage, Diffusing (−LIF, 13.5 ms, replicate iv): 65.4% | Diffusion coefficient, Bound (−LIF, 13.5 ms, replicate ix): 0.100 µm2s-1 | Diffusion coefficient, Diffusing (−LIF, 13.5 ms, replicate ix): 1.031 µm2s-1 | Percentage, Bound (−LIF, 13.5 ms, replicate ix): 28.9% | Percentage, Diffusing (−LIF, 13.5 ms, replicate ix): 71.1% | Diffusion coefficient, Bound (−LIF, 13.5 ms, replicate v): 0.100 µm2s-1 | Diffusion coefficient, Diffusing (−LIF, 13.5 ms, replicate v): 0.710 µm2s-1 | Percentage, Bound (−LIF, 13.5 ms, replicate v): 39.6% | Percentage, Diffusing (−LIF, 13.5 ms, replicate v): 60.4% | Diffusion coefficient, Bound (−LIF, 13.5 ms, replicate vi): 0.100 µm2s-1 | Diffusion coefficient, Diffusing (−LIF, 13.5 ms, replicate vi): 0.582 µm2s-1 | Percentage, Bound (−LIF, 13.5 ms, replicate vi): 38.6% | Percentage, Diffusing (−LIF, 13.5 ms, replicate vi): 61.4% | Diffusion coefficient, Bound (−LIF, 13.5 ms, replicate vii): 0.100 µm2s-1 | Diffusion coefficient, Diffusing (−LIF, 13.5 ms, replicate vii): 0.774 µm2s-1 | Percentage, Bound (−LIF, 13.5 ms, replicate vii): 36.9% | Percentage, Diffusing (−LIF, 13.5 ms, replicate vii): 63.1% | Diffusion coefficient, Bound (−LIF, 13.5 ms, replicate viii): 0.100 µm2s-1 | Diffusion coefficient, Diffusing (−LIF, 13.5 ms, replicate viii): 0.812 µm2s-1 | Percentage, Bound (−LIF, 13.5 ms, replicate viii): 33.6% | Percentage, Diffusing (−LIF, 13.5 ms, replicate viii): 66.4%
